According to US20130184290A1, “SELF-EMULSIFYING FORMULATIONS AND METHODS OF USE THEREOF” (CAPSUGEL, Inc., priority 2011, published 2013):
Like-named read-outs stand apart in the source and are kept apart here.

Columns and labels:
[1] = Apparent intestinal permeability, Caco-2 cell model; type: in vitro ADME; conditions: human, Caco-2, pH 7.4
From the text: (§1) Absorption of particular drugs may be limited by biological factors, such as reduced cellular permeability in the intestine. Many cellular mechanisms can influence permeability, such as reduced passive paracellular and transcellular transport or increased active export by the efflux transporter protein P-glycoprotein. Thus, the use of self-emulsifying carriers may not be beneficial for drugs having limited cellular permeability, where methods to increase the solubilization of a drug may not increase its permeability in the gastrointestinal tract. Experiments were conducted to assess the apparent intestinal permeability of compound 1 using a Caco-2 cell model.
(§2) Briefly, Caco-2 cells were used as an in vitro model for predicting absorption through the intestinal epithelium. Confluent monolayers of Caco-2 cells were grown on collagen-coated, microporous, polycarbonate membranes (12-well Costar Transwell® plates) that are placed between two chambers. The apical side of the monolayer was exposed to the buffer solution in a first chamber, but the basolateral side of the monolayer adhered to microporous membranes fluidically connected to a second chamber. The dosing solution was added to the first chamber for measurements in the apical-to-basolateral direction (A-to-B) and to the second chamber for measurements in the basolateral-to-apical direction (B-to-A). […] The permeability assay buffer was Hanks Balanced Salt Solution containing 10 mM HEPES and 15 mM glucose at a pH of 7.4. The buffer in the receiver chamber also contained 1% bovine serum albumin. The dosing solution concentration was 1 μM of compound 1 in the assay buffer. All donor chambers were first pre-incubated for five minutes with dosing solution to attempt to saturate any non-specific binding sites on the device with test compound. After five minutes, the solution was removed and replaced with fresh dosing solution, and time was recorded as 0. Cell monolayers were dosed on the apical side/first chamber (for A-to-B measurements) or basolateral side/second chamber (for B-to-A measurements) and incubated at 37° C. with 5% CO2 in a humidified incubator. At 30 and 60 minutes, aliquots were taken from the receiver chambers and replaced with fresh assay buffer. Samples were taken from the donor chamber at 0 and 60 minutes. Each experiment was performed in triplicate.
(§3) The apparent permeability (Papp), percent recovery, and efflux ratio were calculated as follows: […]
(§4) is the slope of the cumulative concentration in the receiver chamber as a function of time; V, [cm^3] is the volume of the receiver chamber; Vd [cm^3] is the volume of the donor chamber; A [cm^2] is the area of the cell monolayer, which is estimated to be about 1.13 cm^2 for the 12-well Costar Transwell® plates; C0[μM] is the measured concentration in the donor chamber at t=0 hours; CN [μM] is the nominal concentration of the dosing solution; Cr,final [μM] is the cumulative concentration in the receiver chamber at the end of the incubation period; and Cd,final [μM] is the cumulative concentration in the donor chamber at the end of the incubation period.
(§5) Thus, absorption of compound 1 in humans is not expected to be permeability limited.

[2] = tested on: Caco-2 cells; experiment: as above; type: in vitro ADME; conditions: for Papp R3: replicate 3
From the text: as §1, §2, §3, §4, §5

[3] = Tolerability of compound 1 doses; type: in vivo; conditions: doses of up to 1,600 mg
From the text: Yet, compound 1 is also known to have decreased oral bioavailability in the fasted state, as compared to the fed state. Accordingly, the invention provides formulations to increase the oral bioavailability or to reduce patient-to-patient variability in pharmacokinetic behavior of compound 1, compound 2, or a salt thereof. These formulations include use of a self-emulsifying carrier system to provide stable emulsions capable of dissolving therapeutically effective amounts of compound 1, compound 2, or a salt thereof.

[4] = Previously determined hygroscopicity of compound 1; type: physicochemical; conditions: free base; at 70% relative humidity (RH)
From the text: Compound 1 has the following previously determined characteristics:
(vi) hygroscopicity (for free base): 0.09% at 70% relative humidity (RH);

[5] = Previously determined solubility of compound 1; type: physicochemical
From the text: Compound 1 has the following previously determined characteristics: […]

[6] = Fed-fasted pharmacokinetics of compound 1 HCl salt; type: in vivo; conditions: for half-life: human, in vivo, po, read-out: t1/2 for absorption
From the text: The fed-fasted pharmacokinetic data were collected using a “normal fat” meal consisting of toast with 1 pat of butter, a banana, 2% milk, apple juice, and Honey Nut Cheerios®, where the meal has about 501 calories with 99 calories from fat, 346 calories from carbohydrates, and 56 calories from protein; and using a “high fat” meal consisting of 2 eggs fried in butter, 2 strips of bacon, 2 slices of toast with butter, 4 ounces of hash brown potatoes and 8 ounces of whole milk, where the meal has about 1,000 calories with 500-600 calories from fat, 250 calories from carbohydrates, and 150 calories, from protein.

[7] = Physical stability, formulations having one carrier; type: physicochemical

| Molecule | Papp A→B at 60 min, 1 μM ([1]; A-to-B, average) | efflux ratio at 60 min, 1 μM ([1]; read-out: Efflux Ratio (Papp (B-to-A)/Papp (A-to-B))) | Papp R3 ([2]; A-to-B) | Papp R3 ([2]; B-to-A) | permeability classification ([2]; based on Papp(A-to-B)) | efflux of compound 1 ([2]; based on efflux ratio) | adverse effects [3] | hygroscopicity [4] | solubility in propylene glycol, ethanol, and tetrahydrofuran [5] | solubility in water [5] | Tmax ([6]; fed state with high fat meal) | Tmax ([6]; fed state with normal fat meal) | half-life ([6]; fasted state) | half-life ([6]; fed state with high fat meal) | half-life ([6]; fed state with normal fat meal) | Physical Stability, one month [7] | Physical Stability, one month (cells printed in weeks) [7] | Physical Stability, one week [7] |
| --- | --- | --- | --- | --- | --- | --- | --- | --- | --- | --- | --- | --- | --- | --- | --- | --- | --- | --- |
| O=C(CC(c1ccccc1)c1ccccc1)N1CCN(C(c2ccccc2)c2ccccc2)CC1 [Compound 1, 1-(4-benzhydrylpiperazin-1-yl)-3,3-diphenylpropan-1-one] | > 1 ×10⁻⁶ cm/s | < 3 | 6.78 10^−6 cm/s | 4.45 10^−6 cm/s | high permeability coefficient | not considered significant | no adverse effects | 0.09% | soluble | slightly soluble | 4 to 5 h | 2 to 5 h | 0.05 to 0.17 h | 0.8 to 2.8 h | 0.5 to 1.6 h | – | – | – |
| Caprylic/capric glycerides | – | – | – | – | – | – | – | – | – | – | – | – | – | – | – | >1 month | >1 week | >1 week |
| PEG 8 caprylic/capric glycerides | – | – | – | – | – | – | – | – | – | – | – | – | – | – | – | >1 month | – | >1 week |
